Experimental findings from ChEMBL document CHEMBL4402524, “Identification of Novel Resorcinol Amide Derivatives as Potent and Specific Pyruvate Dehydrogenase Kinase (PDHK) Inhibitors” (J Med Chem, 2019) are described below.

The target of one assay is Heat shock protein HSP90 (Homo sapiens, UniProt P07900+P08238). Briefly: Inhibition of HSP90 (unknown origin). It counts as protein assay.
In assay [1] the test system is NCI-H1299. Briefly: Antiproliferative activity against p53 deficient human H1299 cells incubated for 72 hrs by CellTiter-Glo assay. Type of assay: functional. To be noted: NCI-H1299, 72 h. On the technique in general: Cellular ATP, detected with luciferase, serves as a proxy for viable cell number.
Another assay concerns DU-145. Briefly: Antiproliferative activity against p53 deficient human DU145 cells incubated for 72 hrs by CellTiter-Glo assay. It counts as functional. The settings on record: DU-145, 72 h.
In assay [2] the target is T1, [Pyruvate dehydrogenase (acetyl-transferring)] kinase isozyme 2, mitochondrial (Homo sapiens, UniProt Q15119). Briefly: Inhibition of PDHK2 (unknown origin) by radiometric biochemical kinase assay.
Assay [3] concerns the target T2, [Pyruvate dehydrogenase (acetyl-transferring)] kinase isozyme 4, mitochondrial (Homo sapiens, UniProt Q16654). Briefly: Inhibition of PDHK4 (unknown origin) by radiometric biochemical kinase assay.
Assay [4] deals with [Pyruvate dehydrogenase (acetyl-transferring)] kinase isozyme 1, mitochondrial (Homo sapiens, UniProt Q15118). Briefly: Inhibition of PDHK1 (unknown origin) by radiometric biochemical kinase assay.
Sequence of [Pyruvate dehydrogenase (acetyl-transferring)] kinase isozyme 1, mitochondrial (Q15118 whole entry): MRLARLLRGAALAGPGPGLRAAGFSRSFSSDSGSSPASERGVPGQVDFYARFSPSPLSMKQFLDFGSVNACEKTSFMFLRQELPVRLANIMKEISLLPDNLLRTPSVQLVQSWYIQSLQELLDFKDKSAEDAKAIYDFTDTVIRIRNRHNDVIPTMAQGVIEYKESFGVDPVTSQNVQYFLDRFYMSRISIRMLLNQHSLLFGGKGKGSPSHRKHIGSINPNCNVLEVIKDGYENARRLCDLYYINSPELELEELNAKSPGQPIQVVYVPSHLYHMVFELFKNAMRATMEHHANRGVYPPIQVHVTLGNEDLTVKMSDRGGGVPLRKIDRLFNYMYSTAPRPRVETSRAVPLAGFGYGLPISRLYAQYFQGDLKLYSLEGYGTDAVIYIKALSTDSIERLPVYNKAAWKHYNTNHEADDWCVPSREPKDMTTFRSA
Assay [5] concerns the target [Pyruvate dehydrogenase (acetyl-transferring)] kinase isozyme 3, mitochondrial (Homo sapiens, UniProt Q15120). Briefly: Inhibition of PDHK3 (unknown origin) by radiometric biochemical kinase assay.
Assay [6] addresses T1, [Pyruvate dehydrogenase (acetyl-transferring)] kinase isozyme 2, mitochondrial. Briefly: Inhibition of PDHK2 (unknown origin) assessed as reduction in NAD measured for 30 mins.
Assay [7] deals with T2, [Pyruvate dehydrogenase (acetyl-transferring)] kinase isozyme 4, mitochondrial. Briefly: Inhibition of PDHK4 (unknown origin) assessed as reduction in NAD measured for 30 mins.
A further assay concerns the target T3, Cytochrome P450 1A2 (Homo sapiens, UniProt P05177).
T3 sequence (P05177 whole entry): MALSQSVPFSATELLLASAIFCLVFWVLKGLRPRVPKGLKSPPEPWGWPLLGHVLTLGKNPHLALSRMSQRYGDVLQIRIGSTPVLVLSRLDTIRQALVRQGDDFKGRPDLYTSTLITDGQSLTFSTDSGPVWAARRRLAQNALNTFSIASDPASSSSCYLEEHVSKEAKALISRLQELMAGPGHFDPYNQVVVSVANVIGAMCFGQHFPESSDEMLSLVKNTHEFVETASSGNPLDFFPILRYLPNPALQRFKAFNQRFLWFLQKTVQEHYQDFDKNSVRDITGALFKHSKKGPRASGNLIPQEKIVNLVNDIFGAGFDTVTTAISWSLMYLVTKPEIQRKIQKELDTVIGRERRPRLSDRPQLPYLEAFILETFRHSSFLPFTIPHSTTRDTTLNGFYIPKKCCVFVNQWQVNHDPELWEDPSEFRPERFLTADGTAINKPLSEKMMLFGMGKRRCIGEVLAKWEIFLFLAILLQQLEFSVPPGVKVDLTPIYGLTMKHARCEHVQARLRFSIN
Briefly: Inhibition of CYP1A2 (unknown origin). It counts as ADME.

In the next assay the target is Cytochrome P450 2C9 (Homo sapiens, UniProt P11712). Briefly: Inhibition of CYP2C9 (unknown origin). It counts as ADME.
Sequence of Cytochrome P450 2C9 (P11712 whole entry): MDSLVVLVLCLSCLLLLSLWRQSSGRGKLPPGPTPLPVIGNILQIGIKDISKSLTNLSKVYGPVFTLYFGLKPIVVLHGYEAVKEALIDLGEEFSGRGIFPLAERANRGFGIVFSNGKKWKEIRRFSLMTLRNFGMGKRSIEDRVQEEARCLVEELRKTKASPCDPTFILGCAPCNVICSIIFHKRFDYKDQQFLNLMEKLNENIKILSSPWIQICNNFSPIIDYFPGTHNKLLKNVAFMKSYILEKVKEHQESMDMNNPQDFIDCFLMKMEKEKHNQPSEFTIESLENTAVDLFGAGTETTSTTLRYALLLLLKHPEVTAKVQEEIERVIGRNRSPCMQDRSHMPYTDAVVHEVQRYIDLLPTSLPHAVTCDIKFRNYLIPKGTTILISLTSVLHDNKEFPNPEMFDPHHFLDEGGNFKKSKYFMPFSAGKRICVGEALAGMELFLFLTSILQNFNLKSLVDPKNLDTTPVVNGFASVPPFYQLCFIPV
A further assay deals with Cytochrome P450 2C19 (Homo sapiens, UniProt P33261). Briefly: Inhibition of CYP2C19 (unknown origin). It counts as ADME.
Sequence of Cytochrome P450 2C19 (P33261 whole entry): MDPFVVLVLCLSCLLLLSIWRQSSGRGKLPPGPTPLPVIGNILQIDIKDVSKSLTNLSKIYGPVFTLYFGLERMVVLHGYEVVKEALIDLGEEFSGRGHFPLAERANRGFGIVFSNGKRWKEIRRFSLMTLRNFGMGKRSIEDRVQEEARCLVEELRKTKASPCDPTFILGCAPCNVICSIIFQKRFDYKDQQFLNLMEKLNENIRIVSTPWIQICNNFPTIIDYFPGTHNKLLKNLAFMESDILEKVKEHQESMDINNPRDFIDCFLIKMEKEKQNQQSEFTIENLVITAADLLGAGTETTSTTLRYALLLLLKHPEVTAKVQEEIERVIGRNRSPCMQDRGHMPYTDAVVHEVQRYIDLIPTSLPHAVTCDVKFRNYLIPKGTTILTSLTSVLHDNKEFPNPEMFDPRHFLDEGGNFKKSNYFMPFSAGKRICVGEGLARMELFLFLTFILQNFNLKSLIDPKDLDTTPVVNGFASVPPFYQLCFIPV
In another assay the target is Cytochrome P450 2D6 (Homo sapiens, UniProt P10635). Briefly: Inhibition of CYP2D6 (unknown origin). Type of assay: ADME.
Sequence of Cytochrome P450 2D6 (P10635 whole entry): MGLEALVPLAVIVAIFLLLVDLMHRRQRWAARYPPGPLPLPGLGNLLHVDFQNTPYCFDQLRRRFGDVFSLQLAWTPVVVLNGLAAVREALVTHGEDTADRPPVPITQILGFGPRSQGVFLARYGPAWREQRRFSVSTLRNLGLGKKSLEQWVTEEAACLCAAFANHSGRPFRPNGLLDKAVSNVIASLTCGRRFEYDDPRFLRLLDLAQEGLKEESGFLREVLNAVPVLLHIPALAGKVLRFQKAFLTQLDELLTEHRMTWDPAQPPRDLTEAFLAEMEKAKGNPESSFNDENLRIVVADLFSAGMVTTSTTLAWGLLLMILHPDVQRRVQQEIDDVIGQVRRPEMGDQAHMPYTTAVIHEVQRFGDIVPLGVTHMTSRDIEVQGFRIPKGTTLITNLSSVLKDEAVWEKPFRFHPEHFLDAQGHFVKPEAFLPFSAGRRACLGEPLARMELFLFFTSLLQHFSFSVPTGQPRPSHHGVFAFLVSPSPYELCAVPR
The target of the next assay is Cytochrome P450 3A4 (Homo sapiens, UniProt P08684). Briefly: Inhibition of CYP3A4 (unknown origin). It counts as ADME.
Sequence of Cytochrome P450 3A4 (P08684 whole entry): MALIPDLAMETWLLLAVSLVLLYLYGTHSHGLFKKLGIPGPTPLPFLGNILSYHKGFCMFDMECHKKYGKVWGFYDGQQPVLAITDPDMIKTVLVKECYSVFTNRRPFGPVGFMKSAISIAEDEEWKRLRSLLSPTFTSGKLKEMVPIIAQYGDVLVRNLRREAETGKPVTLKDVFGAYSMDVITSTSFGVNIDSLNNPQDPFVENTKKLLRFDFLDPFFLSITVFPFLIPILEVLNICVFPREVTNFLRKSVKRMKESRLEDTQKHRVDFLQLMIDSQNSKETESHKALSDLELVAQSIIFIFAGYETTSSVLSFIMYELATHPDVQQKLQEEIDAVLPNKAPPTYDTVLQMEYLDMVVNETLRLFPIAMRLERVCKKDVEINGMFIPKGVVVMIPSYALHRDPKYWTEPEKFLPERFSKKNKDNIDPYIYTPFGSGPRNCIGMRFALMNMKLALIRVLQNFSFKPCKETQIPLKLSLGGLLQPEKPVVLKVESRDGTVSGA
Assay [8] deals with NCI-H1299. Briefly: Synergistic antiproliferative activity against human H1299 cells at 20 uM incubated for 72 hrs in presence of satra-platin by CellTiter-Glo assay relative to control. It counts as functional. The settings on record: NCI-H1299, 72 h.

Sequence of [Pyruvate dehydrogenase (acetyl-transferring)] kinase isozyme 3, mitochondrial (Q15120 whole entry): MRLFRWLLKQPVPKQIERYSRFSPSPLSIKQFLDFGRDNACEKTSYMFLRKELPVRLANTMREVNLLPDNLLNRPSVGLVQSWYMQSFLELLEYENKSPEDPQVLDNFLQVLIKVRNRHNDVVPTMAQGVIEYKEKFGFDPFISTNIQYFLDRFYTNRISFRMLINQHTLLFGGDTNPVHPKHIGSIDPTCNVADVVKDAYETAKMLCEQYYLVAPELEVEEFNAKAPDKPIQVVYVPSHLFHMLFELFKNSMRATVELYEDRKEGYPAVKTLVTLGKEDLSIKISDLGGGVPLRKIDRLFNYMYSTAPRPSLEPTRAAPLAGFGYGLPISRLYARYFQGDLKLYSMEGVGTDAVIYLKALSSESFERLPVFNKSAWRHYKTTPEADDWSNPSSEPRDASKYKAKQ
T2 sequence (Q16654 whole entry): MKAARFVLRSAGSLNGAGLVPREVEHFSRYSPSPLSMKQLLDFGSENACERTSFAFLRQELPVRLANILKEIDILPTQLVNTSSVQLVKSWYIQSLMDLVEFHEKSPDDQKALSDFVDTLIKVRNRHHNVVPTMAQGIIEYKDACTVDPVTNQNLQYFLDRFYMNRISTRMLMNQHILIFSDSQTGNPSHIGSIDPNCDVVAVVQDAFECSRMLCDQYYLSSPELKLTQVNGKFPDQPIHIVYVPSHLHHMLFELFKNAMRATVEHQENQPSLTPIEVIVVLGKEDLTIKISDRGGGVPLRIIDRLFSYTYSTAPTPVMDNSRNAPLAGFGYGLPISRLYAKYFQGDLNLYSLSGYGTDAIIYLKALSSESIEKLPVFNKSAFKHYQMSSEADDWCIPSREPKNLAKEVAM

One may read the IC50 as the midpoint of a concentration-inhibition curve. As usually defined, the GI50 is the concentration that inhibits growth by half. The compound `Cc1cnc(Cl)nc1-c1ccc(N(Cc2ccc(CNC(=O)C(F)F)cc2)C(=O)c2ccc(O)cc2O)cc1` gave an IC50 against Heat shock protein HSP90 of more than 10 µM. For the same compound, the GI50 in the assay on NCI-H1299 [1] and with DU-145 was more than 50 µM throughout.

In the case of `CN(C)C(=O)c1ccc(N(Cc2ccccc2)C(=O)c2ccc(O)cc2O)cc1`, the IC50 is 0.206 µM in [2], 0.066 µM in assay [3] and 0.109 µM in [4].

Turning to `CN(C)C(=O)c1ccc(N(Cc2ccc(F)cc2)C(=O)c2ccc(O)cc2)cc1`, the IC50 in assay [2] was found to be 2.04 µM; in assay [3] it was 0.39 µM.

For the compound `CN(C)C(=O)c1ccc(N(Cc2ccc(F)cc2)C(=O)c2ccccc2O)cc1`, the IC50 in assay [2] and in assay [3] was more than 10 µM in each case.

With `CN(C)C(=O)c1ccc(N(Cc2cnc(Br)s2)C(=O)c2ccc(O)cc2O)cc1`, the IC50 came to 0.132 µM in assay [2], 0.087 µM in assay [3], 0.024 µM in assay [4] and 0.09 µM in assay [5]. Moreover, the GI50 in the assay on NCI-H1299 [1] turned out to be 32.2 µM; in the assay on DU-145 it was 18.9 µM.

`CC(=O)Nc1ccc(CN(C(=O)c2ccc(O)cc2O)c2ccc(C(=O)N3CCOCC3)cc2)cc1`: the IC50 in assay [2] stood at 2.66 µM; in [3] it was 5.79 µM.

For the compound `CC(=O)Nc1ccc(CN(C(=O)c2ccc(O)cc2O)c2ccc(C(=O)NCCO)cc2)cc1`, the IC50 in assay [2] was found to be 9.91 µM; in [3], 12.3 µM.

Turning to `CN(C)C(=O)c1ccc(N(Cc2ncc(Br)s2)C(=O)c2ccc(O)cc2O)cc1`, the IC50 in assay [2] was determined as 0.064 µM; in assay [3] it was 0.02 µM; in [4] it was 0.02 µM; in assay [5] it was 0.064 µM; on Heat shock protein HSP90, 6 µM. For the same compound, the GI50 is 60.2 µM with NCI-H1299 [1] and 40.8 µM in the assay on DU-145.

Regarding `CC(=O)Nc1ccc(CN(C(=O)c2ccc(O)cc2O)c2ccc(C(=O)N3CCCCC3)cc2)cc1`, the IC50 in [2] came out at 1.62 µM; in assay [3] it was 1.98 µM.

Take `CC(=O)Nc1ccc(CN(C(=O)c2ccc(O)cc2O)c2ccc(C(=O)NC3CC3)cc2)cc1`: the 50% inhibitory concentration (IC50) in assay [2] stood at 1.96 µM; in [3] it was 14.8 µM.

As for `CC(=O)Nc1ccc(CN(C(=O)c2ccc(O)cc2O)c2ccc(C(=O)N(C)C)cc2)cc1`, the IC50 in assay [2] was found to be 0.503 µM; in [3], 0.311 µM.

For `CN(C)C(=O)c1ccc(N(Cc2ccc(C(F)(F)F)cc2)C(=O)c2ccc(O)cc2O)cc1`, the IC50 in assay [2] amounted to 0.14 µM; in assay [3], 0.273 µM.

As to `CN(C)C(=O)c1ccc(N(Cc2ccc(C#N)s2)C(=O)c2ccc(O)cc2O)cc1`, the IC50 in assay [2] came out at 0.095 µM; in assay [3], 0.089 µM; in assay [4], 0.057 µM; in assay [5] it was 0.098 µM. In addition, the GI50 in the assay on NCI-H1299 [1] turned out to be 107 µM; with DU-145, 59.8 µM.

With `CN(C)C(=O)c1ccc(N(Cc2ccc(I)o2)C(=O)c2ccc(O)cc2O)cc1`, the half-inhibitory concentration (IC50) in [2] stood at 0.098 µM; in assay [3], 0.011 µM; in assay [4] it was 0.014 µM; in assay [5] it was 0.005 µM. The GI50 was 39.2 µM in the assay on NCI-H1299 [1] and 15.9 µM with DU-145.

`CN(C)C(=O)c1ccc(N(Cc2ccc3ccccc3c2)C(=O)c2ccc(O)cc2O)cc1`: the IC50 is 0.373 µM in [2] and 0.234 µM in assay [3].

On to `CN(C)C(=O)c1ccc(N(Cc2ccc(Cl)cc2)C(=O)c2ccc(O)cc2O)cc1`, for which the half-inhibitory concentration (IC50) amounted to 0.126 µM in assay [2] and 0.169 µM in assay [3]. Besides, the 50% growth inhibitory concentration (GI50) in the assay on NCI-H1299 [1] was determined as 31.5 µM; in the assay with DU-145, 51 µM.

On to `CN(C)C(=O)c1ccc(N(Cc2ccc([N+](=O)[O-])cc2)C(=O)c2ccc(O)cc2O)cc1`, for which the IC50 in [2] was found to be 0.11 µM; in assay [3], 0.099 µM. Moreover, the GI50 in the assay on NCI-H1299 [1] amounted to 97.1 µM; with DU-145 it was 44.5 µM.

`CN(C)C(=O)c1ccc(N(Cc2ccc(O)cc2)C(=O)c2ccc(O)cc2O)cc1`: the IC50 is 0.15 µM in assay [2]; 0.034 µM in assay [3]; 0.113 µM in assay [4]; 0.136 µM in [5]; more than 10 µM at Heat shock protein HSP90; 1.46 µM in [6]. The IC50 in assay [7] is 1.31 µM; on Cytochrome P450 1A2, more than 20 µM; against Cytochrome P450 2C9 it was 13.4 µM; on Cytochrome P450 2C19 it was more than 20 µM; against Cytochrome P450 2D6 it was more than 20 µM; against Cytochrome P450 3A4, 6.47 µM. In addition, the figures for the GI50 in the assay on NCI-H1299 [1] and in the assay on DU-145 were 4.9 µM and 3.5 µM, respectively.

Regarding `CN(C)C(=O)c1ccc(N(CC(C)(C)C)C(=O)c2ccc(O)cc2O)cc1`, the IC50 in [2] was 0.772 µM; in [3], 5.33 µM.

With `CN(C)C(=O)c1ccc(N(Cc2ccc(Br)s2)C(=O)c2ccc(O)cc2O)cc1`, the IC50 was 0.018 µM in assay [2], 0.008 µM in assay [3], 0.042 µM in assay [4] and 0.09 µM in assay [5]. The GI50 in the assay with NCI-H1299 [1] was 49.8 µM; in the assay on DU-145, 42.2 µM.

As for `Cc1ccc(CN(C(=O)c2ccc(O)cc2O)c2ccc(C(=O)N(C)C)cc2)o1`, the IC50 in assay [2] was 0.252 µM; in assay [3] it was 0.052 µM; in [4] it was 0.02 µM; in [5], 0.255 µM.

Turning to `CN(C)C(=O)c1ccc(N(Cc2ccc(F)cc2)C(=O)c2ccc(O)cc2O)cc1`, the IC50 in [2] stood at 0.113 µM; in assay [3] it was 0.052 µM; in [4], 0.067 µM; in assay [5], 0.142 µM; at Heat shock protein HSP90, 5.2 µM. The values for the GI50 in the assay with NCI-H1299 [1] and in the assay on DU-145 were 57.1 µM and 69.7 µM, respectively.

As for `CN(C)C(=O)c1ccc(N(Cc2ccc(C#N)cc2)C(=O)c2ccc(O)cc2O)cc1`, the IC50 in assay [2] was 0.302 µM; in [3] it was 0.399 µM; in [4] it was 0.151 µM; in [5] it was 0.461 µM.

In the case of `CN(C)C(=O)c1ccc(N(Cc2ccco2)C(=O)c2ccc(O)cc2O)cc1`, the IC50 turned out to be 0.133 µM in assay [2]; 0.069 µM in assay [3]; 0.048 µM in assay [4]; 0.067 µM in [5]; 0.77 µM against Heat shock protein HSP90; 1.09 µM in assay [6]. Also, in assay [7], the IC50 worked out at 0.58 µM. Also, the concentration for 50% growth inhibition (GI50) in the assay on NCI-H1299 [1] was 7.8 µM; in the assay with DU-145, 9 µM.

Consider `CC(=O)Nc1ccc(CN(C(=O)c2ccc(O)cc2O)c2ccc(C(=O)N3CCCC3)cc2)cc1`, for which the concentration for half-maximal inhibition (IC50) amounted to 1.66 µM in assay [2] and 1.81 µM in [3].

Turning to `CNC(=O)c1ccc(N(Cc2ccc(NC(C)=O)cc2)C(=O)c2ccc(O)cc2O)cc1`, the figures for the IC50 in assay [2] and in assay [3] were 8.59 µM and 7.84 µM, respectively.

Turning to `CN(C)C(=O)c1ccc(N(CC2CCCCC2)C(=O)c2ccc(O)cc2O)cc1`, the IC50 was determined as 0.184 µM in assay [2], 0.775 µM in assay [3], 0.14 µM in assay [4] and 0.858 µM in assay [5].

For the compound `CN(C)C(=O)c1ccc(N(Cc2ccc(Cl)o2)C(=O)c2ccc(O)cc2O)cc1`, the IC50 in [2] amounted to 0.193 µM; in [3] it was 0.082 µM; in [4] it was 0.024 µM; in [5], 0.181 µM. Moreover, the results for the GI50 with NCI-H1299 [1] and with DU-145 were 30 µM and 29.9 µM, respectively.

For `CC(=O)Nc1ccc(CN(C(=O)c2ccc(O)cc2O)c2ccc(C(=O)O)cc2)cc1`, the IC50 in [2] is 7.22 µM; in assay [3], 4.67 µM.

As to `CN(C)C(=O)c1ccc(N(Cc2cc(Br)cs2)C(=O)c2ccc(O)cc2O)cc1`, the concentration for half-maximal inhibition (IC50) in assay [2] is 0.008 µM; in [3], 0.005 µM; in assay [4], 0.009 µM; in [5] it was 0.08 µM; against Heat shock protein HSP90, 5.79 µM; on Cytochrome P450 1A2, more than 20 µM. The IC50 was 18 µM against Cytochrome P450 2C9, 7.8 µM against Cytochrome P450 2C19, more than 20 µM against Cytochrome P450 2D6 and less than 1 µM against Cytochrome P450 3A4. Besides, the GI50 was found to be 51.6 µM with NCI-H1299 [1] and 41.9 µM with DU-145.

For the compound `O=C(O)C(Cl)Cl` [DICHLOROACETIC ACID], the 50% growth inhibitory concentration (GI50) in the assay with NCI-H1299 [8] is 8.5 µM.
